{
  "source": "ChEMBL document CHEMBL5370672",
  "about": "“Discovery of Orally Bioavailable Phthalazinone Analogues as an ENPP1 Inhibitor for STING-Mediated Cancer Immunotherapy” (J Med Chem, 2023)",
  "key": {"[1]": {"experiment": "Tmax in BALB/c mouse at 5 mg/kg, iv measured after 24 hrs by LC-MS/MS analysis", "format": "ADME, organism-based", "details": "in vivo"}, "[2]": {"biological_target": "Stimulator of interferon genes protein (Homo sapiens) (UniProt Q86WV6)", "sequence (Q86WV6 whole entry)": "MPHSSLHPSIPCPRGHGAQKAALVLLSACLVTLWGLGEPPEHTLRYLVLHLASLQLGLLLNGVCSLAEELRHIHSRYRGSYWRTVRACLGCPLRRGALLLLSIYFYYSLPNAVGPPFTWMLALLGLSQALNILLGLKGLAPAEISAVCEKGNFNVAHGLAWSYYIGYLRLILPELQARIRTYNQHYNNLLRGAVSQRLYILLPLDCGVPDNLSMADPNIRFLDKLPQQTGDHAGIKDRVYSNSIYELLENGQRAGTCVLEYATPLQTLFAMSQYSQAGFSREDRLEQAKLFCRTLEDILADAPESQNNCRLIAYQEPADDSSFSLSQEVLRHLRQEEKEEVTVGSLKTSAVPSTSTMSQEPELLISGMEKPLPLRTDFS", "experiment": "Activation of STING-mediated immune response in human HCT-116 cells transfected with ISRE reporter assessed as increase in cGAMP-induced ISRE activation preincubated with compound for 1 hrs followed by cGAMP addition and measured after 48 hrs by luciferase reporter gene assay", "format": "cell-based", "details": "filed as activator, dose <= 200.0 µM, time 49.0 hrs"}, "[3]": {"experiment": "Toxicity in BALB/c mouse implanted with mouse CT26 cells assessed as effect on body weight at 200 mg/kg, po administered for 2 weeks and measured on day 15 in the presence of anti-PD-L1 antibody", "format": "organism-based", "details": "in vivo, 360 h, time 15 day"}, "[4]": {"experiment": "Clearance in BALB/c mouse at 5 mg/kg, iv measured after 24 hrs by LC-MS/MS analysis", "format": "ADME, organism-based", "details": "in vivo"}, "CT26": {"tested_on": "CT26", "experiment": "Antitumor activity against mouse CT26 cells implanted in BALB/c mouse assessed as tumor growth inhibition at 200 mg/kg, po administered for 2 weeks and measured on day 15 in the presence of anti-PD-L1 antibody relative to control", "format": "functional", "details": "CT26, 360 h, time 15 day, read-out: TGI"}, "[5]": {"experiment": "Tmax in BALB/c mouse at 20 mg/kg, po measured after 24 hrs by LC-MS/MS analysis", "format": "ADME, organism-based", "details": "in vivo"}, "[6]": {"biological_target": "Stimulator of interferon genes protein (Homo sapiens) (UniProt Q86WV6)", "experiment": "Activation of STING-mediated immune response in STING knockout human THP-1 cells transfected with ISRE reporter assessed as increase in cGAMP-induced ISRE activation upto 50 uM preincubated with compound for 1 hrs followed by cGAMP addition and measured after 24 hrs by luciferase reporter gene assay", "format": "cell-based", "details": "time 25.0 hrs"}, "[7]": {"experiment": "Metabolic stability in mouse liver microsome assessed as parent compound remaining measured after 30 mins by LC/MS analysis", "format": "ADME", "details": "liver microsomes, read-out: Stability"}, "[8]": {"experiment": "Protein binding in mouse plasma assessed as unbound fraction by equilibrium dialysis based LC-MS/MS analysis", "format": "ADME, cell-free"}, "[9]": {"experiment": "Metabolic stability in human liver microsome assessed as half-life by LC/MS analysis", "format": "ADME", "details": "liver microsomes"}, "Cytochrome P450 3A4": {"biological_target": "Cytochrome P450 3A4 (Homo sapiens, UniProt P08684)", "sequence (P08684 whole entry)": "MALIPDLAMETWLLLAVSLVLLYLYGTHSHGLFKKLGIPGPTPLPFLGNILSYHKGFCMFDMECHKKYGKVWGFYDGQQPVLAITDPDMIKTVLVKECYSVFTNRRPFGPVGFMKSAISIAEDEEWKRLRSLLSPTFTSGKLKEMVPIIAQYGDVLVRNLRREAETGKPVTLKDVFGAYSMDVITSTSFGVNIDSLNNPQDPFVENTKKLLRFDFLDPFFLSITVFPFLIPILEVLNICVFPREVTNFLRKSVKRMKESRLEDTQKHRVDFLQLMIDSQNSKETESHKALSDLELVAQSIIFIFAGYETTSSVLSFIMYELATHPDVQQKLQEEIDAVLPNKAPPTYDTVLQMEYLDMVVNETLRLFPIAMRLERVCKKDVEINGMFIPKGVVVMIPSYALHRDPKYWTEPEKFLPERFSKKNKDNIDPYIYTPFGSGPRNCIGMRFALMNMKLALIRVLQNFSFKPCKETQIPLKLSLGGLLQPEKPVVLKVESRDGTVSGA", "experiment": "Inhibition of CYP3A4 in human liver microsomes", "format": "ADME, Microsome"}, "[10]": {"biological_target": "T1, Ectonucleotide pyrophosphatase/phosphodiesterase family member 1 (Homo sapiens, UniProt P22413)", "T1 sequence (P22413 whole entry)": "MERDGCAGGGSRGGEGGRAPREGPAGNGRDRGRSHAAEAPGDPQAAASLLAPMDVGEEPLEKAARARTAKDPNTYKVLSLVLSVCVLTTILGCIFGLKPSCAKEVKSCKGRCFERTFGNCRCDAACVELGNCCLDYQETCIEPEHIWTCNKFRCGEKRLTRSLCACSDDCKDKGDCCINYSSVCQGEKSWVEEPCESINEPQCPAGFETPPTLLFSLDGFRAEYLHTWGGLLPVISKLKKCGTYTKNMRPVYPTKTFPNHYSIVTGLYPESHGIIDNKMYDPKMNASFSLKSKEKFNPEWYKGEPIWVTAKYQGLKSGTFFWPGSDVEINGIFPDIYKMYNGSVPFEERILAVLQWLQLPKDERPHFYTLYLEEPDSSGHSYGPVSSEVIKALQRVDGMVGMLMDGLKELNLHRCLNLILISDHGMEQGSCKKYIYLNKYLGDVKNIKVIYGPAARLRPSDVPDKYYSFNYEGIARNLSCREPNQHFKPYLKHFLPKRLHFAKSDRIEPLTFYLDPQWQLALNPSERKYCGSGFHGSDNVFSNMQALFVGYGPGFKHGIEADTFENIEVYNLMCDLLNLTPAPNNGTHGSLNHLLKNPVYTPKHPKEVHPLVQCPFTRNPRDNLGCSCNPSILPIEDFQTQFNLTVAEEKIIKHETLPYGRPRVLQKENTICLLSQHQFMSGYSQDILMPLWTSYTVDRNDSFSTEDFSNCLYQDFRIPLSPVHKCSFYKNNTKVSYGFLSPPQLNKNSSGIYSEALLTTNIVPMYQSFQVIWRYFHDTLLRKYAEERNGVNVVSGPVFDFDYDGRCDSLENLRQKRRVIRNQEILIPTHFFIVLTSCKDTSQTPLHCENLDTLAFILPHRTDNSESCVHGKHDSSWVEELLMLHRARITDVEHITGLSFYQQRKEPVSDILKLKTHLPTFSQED", "experiment": "Inhibition of recombinant human ENPP1 using cGAMP as substrate assessed as inhibition of cGAMP hydrolysis preincubated for 5 to 10 mins followed by substrate addition and measured after 90 mins by AMP-Glo reagent based luminescence plate reader analysis"}, "[11]": {"experiment": "Protein binding in human plasma assessed as unbound fraction by equilibrium dialysis based LC-MS/MS analysis", "format": "ADME, cell-free"}, "[12]": {"experiment": "AUC (0 to infinity) in BALB/c mouse at 20 mg/kg, po measured after 24 hrs by LC-MS/MS analysis", "format": "ADME, organism-based", "set-up": "time 24 hrs, dose 20 mg/kg, route po", "details": "in vivo"}, "[13]": {"biological_target": "Stimulator of interferon genes protein (Homo sapiens) (UniProt Q86WV6)", "experiment": "Activation of STING-mediated immune response in human HCT-116 cells transfected with ISRE reporter assessed as increase in cGAMP-induced ISRE activation at 25 to 100 uM preincubated with compound for 1 hrs followed by cGAMP addition and measured after 48 hrs by luciferase reporter gene assay", "format": "cell-based", "details": "filed as activator, dose 25-100 µM, time 49.0 hrs"}, "[14]": {"experiment": "Cmax in BALB/c mouse at 20 mg/kg, po measured after 24 hrs by LC-MS/MS analysis", "format": "ADME, organism-based", "set-up": "dose 20 mg/kg, time 24 hrs, route po", "details": "in vivo"}, "Cytochrome P450 2D6": {"biological_target": "Cytochrome P450 2D6 (Homo sapiens, UniProt P10635)", "sequence (P10635 whole entry)": "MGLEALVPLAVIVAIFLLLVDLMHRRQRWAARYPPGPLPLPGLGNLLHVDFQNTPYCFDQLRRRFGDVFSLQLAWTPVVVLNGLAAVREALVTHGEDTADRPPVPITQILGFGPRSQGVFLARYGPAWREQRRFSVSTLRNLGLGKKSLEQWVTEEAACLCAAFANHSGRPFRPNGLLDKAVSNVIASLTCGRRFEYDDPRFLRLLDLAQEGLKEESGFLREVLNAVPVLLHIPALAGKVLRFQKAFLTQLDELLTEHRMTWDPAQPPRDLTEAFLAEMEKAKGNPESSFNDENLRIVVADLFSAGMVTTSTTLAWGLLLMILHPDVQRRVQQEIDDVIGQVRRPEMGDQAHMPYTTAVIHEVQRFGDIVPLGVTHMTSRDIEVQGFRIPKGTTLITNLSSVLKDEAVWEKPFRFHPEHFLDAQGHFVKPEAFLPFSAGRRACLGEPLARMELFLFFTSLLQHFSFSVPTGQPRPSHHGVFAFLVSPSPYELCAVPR", "experiment": "Inhibition of CYP2D6 in human liver microsomes", "format": "ADME, Microsome"}, "[15]": {"experiment": "Half-life in BALB/c mouse at 5 mg/kg, iv measured after 24 hrs by LC-MS/MS analysis", "format": "ADME, organism-based", "details": "in vivo"}, "[16]": {"experiment": "Toxicity in BALB/c mouse implanted with mouse CT26 cells assessed as effect on body weight at 200 mg/kg, po preadministered with compound for 2 weeks followed by reinoculation of CT26 cells and measured on day 19 in the presence of anti-PD-L1 antibody", "format": "organism-based", "details": "in vivo, 456 h, time 19 day"}, "[17]": {"experiment": "Toxicity in BALB/c mouse implanted with mouse CT26 cells assessed as effect on body weight at 200 mg/kg, po administered for 2 weeks and measured on day 15", "format": "organism-based", "details": "in vivo, 360 h, time 15 day"}, "[18]": {"experiment": "Metabolic stability in mouse liver microsome assessed as intrinsic clearance by LC/MS analysis", "format": "ADME", "details": "liver microsomes, read-out: CLH"}, "[19]": {"experiment": "Metabolic stability in human liver microsome assessed as intrinsic clearance by LC/MS analysis", "format": "ADME", "details": "liver microsomes, read-out: CLH"}, "[20]": {"experiment": "Metabolic stability in mouse liver microsome assessed as half-life by LC/MS analysis", "format": "ADME", "details": "liver microsomes"}, "[21]": {"experiment": "AUC (0 to t) in BALB/c mouse at 5 mg/kg, iv measured after 24 hrs by LC-MS/MS analysis", "format": "ADME, organism-based", "set-up": "dose 5 mg/kg, time 24 hrs, route iv", "details": "in vivo"}, "[22]": {"experiment": "MRT (0 to infinity) in BALB/c mouse at 20 mg/kg, po measured after 24 hrs by LC-MS/MS analysis", "format": "ADME, organism-based", "details": "in vivo"}, "[23]": {"experiment": "MRT (0 to t) in BALB/c mouse at 20 mg/kg, po measured after 24 hrs by LC-MS/MS analysis", "format": "ADME, organism-based", "details": "in vivo"}},
  "note": "Calls of active or inactive are those of the source. No cut-off for these calls is given here.",
  "data": [
    {"smiles": "Cn1nc(Cc2ccc(NS(N)(=O)=O)cc2)c2ccccc2c1=O", "values": [
      {"measurement": "Tmax", "setting": "[1]", "value": 4.8, "unit": "min"},
      {"measurement": "Activity", "setting": "[2]", "value": "Dose-Dependent Effect"},
      {"measurement": "Activity", "setting": "[3]", "value": "Non-Toxic"},
      {"measurement": "clearance", "setting": "[4]", "value": 2.88, "unit": "mL/min/kg"},
      {"measurement": "inhibition in vivo at 200 mg/kg", "setting": "CT26", "value": 69, "unit": "%"},
      {"measurement": "Tmax", "setting": "[5]", "value": 1.67, "unit": "h"},
      {"measurement": "Activity", "setting": "[6]", "value": "inactive"},
      {"measurement": "remaining at 0.5 h", "setting": "[7]", "value": 65, "unit": "%"},
      {"measurement": "fraction unbound", "setting": "[8]", "value": 0.09},
      {"measurement": "half-life", "setting": "[9]", "value": "> 2", "unit": "h"},
      {"measurement": "IC50", "setting": "Cytochrome P450 3A4", "value": "> 10", "unit": "µM"},
      {"measurement": "IC50", "setting": "[10]", "value": 0.068, "unit": "µM"},
      {"measurement": "fraction unbound", "setting": "[11]", "value": 0.18},
      {"measurement": "AUC(0-inf)", "setting": "[12]", "value": 79600, "unit": "ng·h/mL"},
      {"measurement": "Activity", "setting": "[13]", "value": "Active"},
      {"measurement": "Cmax", "setting": "[14]", "value": 12700, "unit": "ng/mL"},
      {"measurement": "IC50", "setting": "Cytochrome P450 2D6", "value": "> 10", "unit": "µM"},
      {"measurement": "half-life", "setting": "[15]", "value": 3.61, "unit": "h"},
      {"measurement": "Activity", "setting": "[16]", "value": "Non-Toxic"},
      {"measurement": "Activity", "setting": "[17]", "value": "Non-Toxic"},
      {"measurement": "CLint scaled", "setting": "[18]", "value": 92.1, "unit": "mL/min/kg"},
      {"measurement": "CLint scaled", "setting": "[19]", "value": "< 14.5", "unit": "mL/min/kg"},
      {"measurement": "half-life", "setting": "[20]", "value": 0.987, "unit": "h"},
      {"measurement": "AUC(0-t) at 24 h", "setting": "[21]", "value": 30400, "unit": "ng·h/mL"},
      {"measurement": "MRT inf", "setting": "[22]", "value": 3.81, "unit": "h"},
      {"measurement": "MRT last at 24 h", "setting": "[23]", "value": 3.75, "unit": "h"}
    ]}
  ]
}
